Data reported in patent US20080069849A1, “Novel Antimicrobial Peptides” (Dermagen AB, priority 2004, published 2008).
Read-outs that look alike come from different tables or passages of the source. Where a SMILES comes first, the peptide text is derived from it. Where no end group is shown, it is not given here. [ ]: non-standard residue; d: D form.

Key:
erythrocytes = assay: Hemolysis assay (Example 11); assay type: cell-based; set-up: % Hemolysis Mean: dose or concentration left out as unconfirmed
Protocol: EDTA-blood was centrifuged at 800 g for 10 min, whereafter plasma and buffy coat were removed. The erythrocytes were washed three times and resuspended in 5% PBS, pH 7.4. The cells were then incubated with end-over-end rotation for 1 h at 37° C. in the presence of peptides ([…]). 2% Triton X-100 (Sigma-Aldrich) served as positive control. The samples were then centrifuged at 800 g for 10 min. The absorbance of hemoglobin release was measured at λ 540 nm and is in the plot expressed as % of TritonX-100 induced hemolysis.

[1] = tested on: Staphylococcus aureus ATCC29213; assay: Radial diffusion assay (RDA), S. aureus ATCC29213; assay type: cell-based; settings: zone of inhibition; Table 2, second generation PEPscreen
Protocol: (§1) Escherichia coli 37.4 isolate was originally obtained from a patient with a chronic venous ulcer, while Staphylococcus aureus isolate BD14312 was from a patient with atopic dermatitis. Staphylococcus aureus ATCC29213 and Candida albicans ATCC90028 were both obtained from the Clinical Bacteriology Department at Lund University hospital.
(§2) Essentially as described earlier (Lehrer et al., J Immunol Methods 137, 167-173, 1991, Andersson et al., Eur J Biochem 271, 1219-1226, 2004) bacteria were grown to mid-logarithmic phase in 10 ml of full-strength (3% w/v) trypticase soy broth (TSB) (Becton-Dickinson, Cockeysville, Md.). The microorganisms were then washed once with 10 mM Tris, pH 7.4.4×10^6 bacterial colony forming units were added to 15 ml of the underlay agarose gel, consisting of 0.03% (w/v) TSB, 1% (w/v) low electroendosmosis type (EEO) agarose (Sigma, St Louis Mo.) and 0.02% (v/v) Tween 20 (Sigma). The underlay was poured into a ø 144 mm petri dish. After agarose solidification, 4 mm-diameter wells were punched and 6 μl of test sample was added to each well. Plates were incubated at 37° C. for 3 hours to allow diffusion of the peptides. The underlay gel was then covered with 15 ml of molten overlay (6% TSB and 1% Low-EEO agarose in dH2O). Antimicrobial activity of a peptide is visualized as a zone of clearing around each well after 18-24 hours of incubation at 37° C.

Escherichia coli 37.4 = assay: Radial diffusion assay (RDA), E. coli 37.4; assay type: cell-based; settings: zone of inhibition; Table 2, second generation PEPscreen
Protocol: as §1, §2

P. aeruginosa 27.1 = assay: Radial diffusion assay analysis of CNY variants (Example 4); assay type: cell-based, Pseudomonas aeruginosa; settings: peptides 100 μM
Protocol: Radial diffusion assays (RDA) were performed essentially as described earlier (Andersson et al., Eur J Biochem, 2004, 271:1219-1226). Briefly, bacteria (P. aeruginosa 27.1) were grown to mid-logarithmic phase in 10 ml of full-strength (3% w/v) trypticase soy broth (TSB) (Becton-Dickinson, Cockeysville, Md.). The microorganisms were washed once with […] Tris, pH 7.4. 4×10^6 bacterial cfu or 1×10^5 fungal cfu was added to 5 ml of the underlay agarose gel, consisting of 0.03% (w/v) TSB, 1% (w/v) low-electroendosmosistype (Low-EEO) agarose (Sigma, St Louise Mo.) and a final concentration of 0.02% (v/v) Tween 20 (Sigma). The underlay was poured into a Ø 85 mm petri dish. After agarose solidified, 4 mm-diameter wells were punched and 6 μl of test sample was added to each well. Plates were incubated at 37° C. for 3 hours to allow diffusion of the peptides. The underlay gel was then covered with 5 ml of molten overlay (6% TSB and 1% Low-EEO agarose in dH2O). Antimicrobial activity of a peptide is visualized as a clear zone around each well after 18-24 hours of incubation at 37° C. Synthetic peptides were tested in concentrations of 100 μM to determine the antibacterial effect (FIG. 8). CNY21; […], CNY20; […], CNY21R-S; […], CNY20R-S; […], CNY21H-L: […], CNY21H-K: […], CNY21H-P: […].

[2] = Pore formation / carboxyfluorescein leakage of liposomes; settings: 10 mM Tris, pH 7.4
Protocol: Peptides were tested for binding to lipid bilayers, resulting pore formation and peptide secondary structure in the lipid membranes. Lipid membranes investigated included both zwitterionic ones (containing phosphatidylcholine) and anionic ones (containing mixtures of phosphatidylcholine and phosphatidic acid). Lipid membranes were deposited at silica, and the binding of the peptides from 10 mM Tris, pH 7.4, was directly monitored by ellipsometry. […] Pore formation in these liposomes were determined by including carboxyfluorescein in the liposomes and following the fluorescence intensity increase on addition of peptides to the liposomes. Furthermore, the secondary structure of the peptides in the liposome lipid membranes was probed by circular dichroism.

Molecule	% Hemolysis Mean (erythrocytes; 1 h) [%]	further results
CC[C@@H](C)[C@@H](NC(=O)[C@@H](Cc1ccc(O)cc1)NC(=O)[C@@H](CC(N)=O)NC(=O)[C@H](N)CS)C(=O)N[C@@H](C(=O)N[C@H](CCC(=O)O)C(=O)N[C@H](CC(C)C)C(=O)N[C@H](CCCNC(=N)N)C(=O)N[C@H](CCCNC(=N)N)C(=O)N[C@H](CCC(N)=O)C(=O)N[C@H](Cc1c[nH]cn1)C(=O)N[C@H](C)C(=O)N[C@H](CCCNC(=N)N)C(=O)N[C@H](C)C(=O)N[C@H](CO)C(=O)N[C@H](Cc1c[nH]cn1)C(=O)N[C@H](CC(C)C)C(=O)NCC(=O)N[C@H](CC(C)C)C(=O)N[C@H](C)C(=O)O)[C@H](C)O [Peptide 182] (H-[dC][dN][dY][dI][dT][dE][dL][dR][dR][dQ][dH][dA][dR][dA][dS][dH][dL]G[dL][dA]-OH; N-terminus and C-terminus assumed)	2.659	
CNYITELLRQRARALHKGLA [Peptide 165]	2.659	
CNYITELLRQLARARHKGLA [Peptide 156]	3.321	
CNYITELLRQLARASKKGLA [Peptide 39]		hemolytic activity (erythrocytes): low hemolytic activity
CNYITELLRQKARALHKGLA [Peptide 161]	1.902	
CNYIKELLRQKLRASHLGLA [Peptide 171]	2.383	
CNYITELKRQLARALKKGLA [Peptide 144]	3.597	
CNYIEELLRQLARATKKGLA [Peptide 153]	1.755	
CNYIEELLRQKARALKKGLA [Peptide 164]	2.340	
CNYIEELKRQLARALKKGLA [Peptide 146]	2.521	
CNYITELLRQLARAQKKGLA [Peptide 155]	5.817	
Ac-CNYITELLRQLARASKKGLA-NH2 [Peptide 180]	5.447	RDA (mm) S. aureus ATCC29213 Mean [1]: 0 mm; RDA (mm) E. coli 37.4 Mean (Escherichia coli 37.4): 5.933 mm
CNYIEELLRQLARATHKGLA [Peptide 151]	1.626	
CNYIEELLRQLARARHKGLA [Peptide 157]	1.282	
CNYIEELRRQLARALHKGLA [Peptide 47]	2.323	hemolytic activity (erythrocytes): low hemolytic activity
CNYIEELWRQLARALHKGLA [Peptide 176]	2.771	
CNYITELKRQLARALHKGLA [Peptide 143]	3.450	
CNYITELLRQLARASHKGLA [Peptide 147]	2.555	
CNYIEELLRQKARALHKGLA [Peptide 162]	2.056	
CC[C@@H](C)[C@@H](NC(=O)[C@@H](Cc1ccc(O)cc1)NC(=O)[C@@H](CC(N)=O)NC(=O)[C@H](N)CS)C(=O)N[C@@H](C(=O)N[C@H](CCC(=O)O)C(=O)N[C@H](CC(C)C)C(=O)N[C@H](CC(C)C)C(=O)N[C@H](CCCNC(=N)N)C(=O)N[C@H](CCC(N)=O)C(=O)N[C@H](CC(C)C)C(=O)N[C@H](C)C(=O)N[C@H](CCCNC(=N)N)C(=O)N[C@H](C)C(=O)N[C@H](CO)C(=O)N[C@H](CCCCN)C(=O)N[C@H](CCCCN)C(=O)NCC(=O)N[C@H](CC(C)C)C(=O)N[C@H](C)C(=O)O)[C@H](C)O [Peptide 183] (H-[dC][dN][dY][dI][dT][dE][dL][dL][dR][dQ][dL][dA][dR][dA][dS][dK][dK]G[dL][dA]-OH; N-terminus and C-terminus assumed)	5.128	
Ac-CNYIEELRRQLARALHKGLA-NH2 [Peptide 181]	4.861	RDA (mm) S. aureus ATCC29213 Mean [1]: 4.24 mm; RDA (mm) E. coli 37.4 Mean (Escherichia coli 37.4): 4.330 mm
CNYIWELRRQLARALHKGLA [Peptide 177]	3.175	
CNYITELRRQLARASLLGLAR [CNY21H-L]		antibacterial effect in RDA (P. aeruginosa 27.1): larger anti-bacterial effect; pore formation and leakage of liposomes, order of efficiency [2]: CNY21H-L≈CNY21H-K>CNY21>CNY21H-P≧CNY21 R-S
CNYITELRRQPARASPLGLAR [CNY21H-P]		antibacterial effect in RDA (P. aeruginosa 27.1): no antimicrobial effects; pore formation and leakage of liposomes, order of efficiency [2]: CNY21H-L≈CNY21H-K>CNY21>CNY21H-P≧CNY21 R-S
CNYITELLRQRARALKKGLA [Peptide 167]	2.642	

Molecule	% Hemolysis Mean (erythrocytes; 1 h) [%]	further results
CNYIEELRRQLARALKKGLA [Peptide 142]	3.734	
Ac-CNYITELRRQHARASHLGLA-NH2 [Peptide 179]	2.495	RDA (mm) S. aureus ATCC29213 Mean [1]: 4.03 mm; RDA (mm) E. coli 37.4 Mean (Escherichia coli 37.4): 2.677 mm
CNYITELLRQLARATHKGLA [Peptide 150]	3.777	
CNYIEELRRQLARALHKWLA [Peptide 173]	8.148	
CNYIEELLRQRARALKKGLA [Peptide 168]	2.573	
CNYITELLRQLARATKKGLA [Peptide 152]	3.984	
CC[C@@H](C)[C@@H](NC(=O)[C@@H](Cc1ccc(O)cc1)NC(=O)[C@@H](CC(N)=O)NC(=O)[C@H](N)CS)C(=O)N[C@H](CCC(=O)O)C(=O)N[C@H](CCC(=O)O)C(=O)N[C@H](CC(C)C)C(=O)N[C@H](CCCNC(=N)N)C(=O)N[C@H](CCCNC(=N)N)C(=O)N[C@H](CCC(N)=O)C(=O)N[C@H](CC(C)C)C(=O)N[C@H](C)C(=O)N[C@H](CCCNC(=N)N)C(=O)N[C@H](C)C(=O)N[C@H](CC(C)C)C(=O)N[C@H](Cc1c[nH]cn1)C(=O)N[C@H](CCCCN)C(=O)NCC(=O)N[C@H](CC(C)C)C(=O)N[C@H](C)C(=O)O [Peptide 184] (H-[dC][dN][dY][dI][dE][dE][dL][dR][dR][dQ][dL][dA][dR][dA][dL][dH][dK]G[dL][dA]-OH; N-terminus and C-terminus assumed)	3.235	
CNYITELLRQKARALKKGLA [Peptide 163]	2.478	
CNYITELLRQLARAKKKGLA [Peptide 160]	2.512	
CNYIEELKRQLARALHKGLA [Peptide 145]	2.495	
CNYITELRRQKARASKLGLAR [CNY21H-K]		antibacterial effect in RDA (P. aeruginosa 27.1): larger anti-bacterial effect; pore formation and leakage of liposomes, order of efficiency [2]: CNY21H-L≈CNY21H-K>CNY21>CNY21H-P≧CNY21 R-S
CNYIEELRRQLARAWHKGLA [Peptide 174]	2.056	
CNYIEELLRQRARALHKGLA [Peptide 166]	2.117	
CNYIEELRRQWARALHKGLA [Peptide 175]	1.824	
CNYITELRRQLARALHKGLA [Peptide 140]	5.145	
CNYIEELLRQLARASKKGLA [Peptide 149]	1.506	
CNYIEELLRQLARARKKGLA [Peptide 159]	1.841	
CNYITELRRQLARALKKGLA [Peptide 141]	17.716	
CNYITELLRQLARANKKGLA [Peptide 154]	2.564	
CNYITELLRQLARARKKGLA [Peptide 158]	3.829	
CNYITELRRQKLRLLHKGLA [Peptide 170]	2.211	
CNYIEELLRQLAPASHKGLA [Peptide 148]		RDA (mm) S. aureus ATCC29213 Mean [1]: 0.99 mm; % Hemolysis Mean (erythrocytes): 1.454%; RDA (mm) E. coli 37.4 Mean (Escherichia coli 37.4): 2.900 mm
CNYITELRRQKLRLLKKGLA [Peptide 169]	2.512	
CKYITLLRRQLLRALKRGLR [Peptide 73]		hemolytic activity (erythrocytes): low hemolytic activity
